Source: patent US6350744B1, “Compounds having cytokine inhibitory activity” (Merck & Co., Inc., priority 1998, dated 2002)

melting point | SMILES
188 to 189 °C | CN1CCC(c2cc(-c3ccncc3)c(-c3cccc(C(F)(F)F)c3)nn2)CC1 [Example 11, 3-(3-trifluoromethylphenyl)-4(pyridine-4-yl)-6-(N-methylpiperidin-4-yl)pyridazine]
148 to 150 °C | FC(F)(F)c1cccc(-c2cc(C3CCNCC3)nnc2-c2ccncc2)c1 [Example 28, 3-(pyridine-4-yl)-4-(3-trifluoromethylphenyl)-6-(piperidin-4-yl)pyridazine]
